tested on: Colorado potato beetle (CPB) adults; experiment: open Y-track olfactometer dual choice bioassay, adult beetles; assay type: in vivo, Leptinotarsa decemlineata; conditions: not given
Text: Insects: Adult Colorado potato beetles (CPB) were obtained from a laboratory colony which was annually infused with feral insects. CPB were maintained on potato, S. tuberosum cultivar Kennebeck, for both larval and adult stages. Upon emergence, adults were sexed; individual insects were kept in plastic containers with fresh potato foliage and water until use six to 12 days post emergence. Prior to testing, CPB were starved for two to three hours. Experimental insects were used only once.
Odorous blends tested are described in Table 3.
Plant stimuli consisted of 4.8 g of leaves from mature plants that were mechanically-damaged using scissors to make incisions ca. 1 cm in length at ca. 1 cm intervals around the circumference of leaves. Foliage used in the study were, potato, S. tuberosum cultivar Kennebeck (Solanaceae); tomato, Lycopersicon esculentum Mill cultivar Pik Red (Solanaceae); and soybean, Glycines maxcultivar Williams (Leguminaceae).
Experimental protocol: Chemical blends and plant foliage were tested for behavioral activity in an open Y-track olfactometer modified after Visser et al. (Visser, J. H., et al., Proceedings of the Section Experimental and Applied Entomology of the Netherlands Entomological Society Amsterdam, 9: 41-46 (1998); and described in detail by Dickens (Dickens, J. C., Agricultural and Forest Entomology, 1: 47-54 (1999)). In brief, odorous stimuli emanating from synthetic blends on filter paper discs (2.5 cm dia., Whatman™ #1 filter paper) or mechanically-damaged plant foliage in Ehrlenmeyer flasks were delivered to either side of the device. For each blend, a total amount of 25 μl of neat chemicals were diluted in 1 ml of mineral oil (25 μg total chemicals/μl mineral oil). […]
Statistical analysesLaboratory bioassays were assessed for significant differences by the hypothesis on binomial proportions based on the standard normal approximation (Brase, C. H., et al., Understanding Statistics, D. C. Heath and Co., Lexington, Mass., XIV +489 pp. (1983)).

**Q.** Which “behavioral response of CPB to treatment versus control (in words)” value does the source give for CC/C=C\CCOC(C)=O [XIV, (Z)-3-hexenyl acetate] here?
**A.** The value was “unattractive”.

**Q.** With C=CC(C)(O)CCC=C(C)C (single isomer, unassigned; (+)) [XV, (+)-linalool] as the molecule, how does the “behavioral response of CPB to treatment versus control (in words)” value read?
**A.** The value was “unattractive”.

**Q.** With COC(=O)c1ccccc1O [XVI, methyl salicylate] as the molecule, how does the “behavioral response of CPB to treatment versus control (in words)” value read?
**A.** Its value is “unattractive”.

tested on: CPB; experiment: not given; conditions: Schütz et al. (1997); cited from earlier work

**Q.** With OCCc1ccccc1 [2-benzene-ethanol] as the molecule, how does the “attraction of CPB to leaves sprayed with paraffin solutions (in words)” value (“attraction of CPB to leaves sprayed” below) read?
**A.** Its value is “attractive”.

**Q.** For C=C1CC/C=C(\C)CC[C@@H]2[C@@H]1CC2(C)C [β-caryophyllene], which “attraction of CPB to leaves sprayed” value is on record?
**A.** The value was “attractive”.

**Q.** With C=CC(=C)CCC=C(C)C [β-myrcene] as the molecule, how does the “attraction of CPB to leaves sprayed” value read?
**A.** Its value is “reduced attraction”.

**Q.** Which “attraction of CPB to leaves sprayed” value does the source give for benzene methanol here?
**A.** Its value is “attractive”.

**Q.** Which “attraction of CPB to leaves sprayed” value does the source give for CCCCC/C=C\CCO [(Z)-3-nonen-1-ol] here?
**A.** Its value is “reduced attraction”.

**Q.** With CCCCCCCCC=O [nonanal] as the molecule, how does the “attraction of CPB to leaves sprayed” value read?
**A.** Its value is “reduced attraction”.

**Q.** For C=CC(C)(O)CCC=C(C)C (stereo not shown) [linalool], which “attraction of CPB to leaves sprayed” value is on record?
**A.** Its value is “attractive”.
